The test system of the data set is Lewis Lung Carcinoma. To be noted: mouse, in vivo, ip.

Consider `O=P1(N(CCCl)CCCl)NCCCO1` (centres unmarked) [Cyclophosphamide, cyclophosphamide], for which the “% ILS (excluding survivors)” value came out at 68%, the Highest non-toxic dosage is recorded as 200, the “T-C (tumor growth delay to 750 mg)” value is 27 days and the tumor free survivors was 5/10.

With `O=P1(NCCCl)OCCCN1CCCl` (centres unmarked) [Ifosfamide], the “% ILS (excluding survivors)” value was determined as 55%, the Highest non-toxic dosage came out at 300, the “T-C (tumor growth delay to 750 mg)” value amounted to 18 days and the tumor free survivors is 7/10.
